Measured values reported in US20210196671A1, “COMPOSITIONS COMPRISING 3'-O-METHYL-4'-O-SULFATE EPICATECHIN AND THERAPEUTIC USES OF SUCH COMPOSITIONS” (SOCIÉTÉ DES PRODUITS NESTLÉ S.A., priority 2016, published 2021).

Target: T1, h-TRPA1 (Homo sapiens, UniProt O75762)
T1 construct: expressed in transfected cells; host or cells: CHO cells
Experiment: activation of CHO cells expressing h-TRPA1, calcium imaging
Format: cell-based
Settings: concentration (max) tested 1 mM
Procedure: Several epicatechin metabolites were tested in vitro to determine if any of these compounds are an agonist of the cation channel of TRPA1. Specifically, the activation of CHO cells expressing h-TRPA1 was tested according to the calcium imaging method described in Riera et al. (Riera, C. E., Vogel, H., Simon, S. A., Damak, S., & le Coutre, J. Sensory attributes of complex tasting divalent salts are mediated by TRPM5 and TRPV1 channels. J. Neurosci. 29, 2654-2662 (2009)).

T1 sequence (O75762 whole entry): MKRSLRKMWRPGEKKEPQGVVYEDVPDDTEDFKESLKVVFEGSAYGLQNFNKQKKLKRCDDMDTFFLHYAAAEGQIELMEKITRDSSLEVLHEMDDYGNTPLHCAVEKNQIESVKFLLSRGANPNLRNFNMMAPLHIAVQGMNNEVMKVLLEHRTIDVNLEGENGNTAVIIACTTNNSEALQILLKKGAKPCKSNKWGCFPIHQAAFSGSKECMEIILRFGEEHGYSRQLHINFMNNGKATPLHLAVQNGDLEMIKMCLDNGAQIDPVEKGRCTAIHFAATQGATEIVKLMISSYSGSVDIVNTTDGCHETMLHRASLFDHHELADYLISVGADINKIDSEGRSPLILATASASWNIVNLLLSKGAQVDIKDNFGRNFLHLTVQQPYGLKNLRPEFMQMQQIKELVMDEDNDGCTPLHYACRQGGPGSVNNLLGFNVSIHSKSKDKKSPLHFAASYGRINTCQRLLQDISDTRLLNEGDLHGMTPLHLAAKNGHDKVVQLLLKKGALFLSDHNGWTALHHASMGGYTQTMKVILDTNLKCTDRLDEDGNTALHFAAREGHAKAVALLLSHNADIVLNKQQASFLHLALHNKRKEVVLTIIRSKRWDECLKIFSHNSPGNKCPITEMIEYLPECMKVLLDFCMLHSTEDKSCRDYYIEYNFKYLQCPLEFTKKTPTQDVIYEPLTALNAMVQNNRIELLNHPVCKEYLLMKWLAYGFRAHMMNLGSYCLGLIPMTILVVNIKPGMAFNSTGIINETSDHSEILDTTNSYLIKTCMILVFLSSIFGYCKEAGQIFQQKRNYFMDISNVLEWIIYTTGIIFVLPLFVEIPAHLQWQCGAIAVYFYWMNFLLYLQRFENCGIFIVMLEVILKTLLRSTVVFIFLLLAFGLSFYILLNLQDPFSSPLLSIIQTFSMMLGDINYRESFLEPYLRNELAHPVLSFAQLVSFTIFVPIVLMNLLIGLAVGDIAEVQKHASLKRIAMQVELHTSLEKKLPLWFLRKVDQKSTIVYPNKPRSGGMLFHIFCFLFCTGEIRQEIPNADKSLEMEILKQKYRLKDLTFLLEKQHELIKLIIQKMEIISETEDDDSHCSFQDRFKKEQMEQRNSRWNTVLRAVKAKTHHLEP

| Activity vs hTRPA1 | Compound |
| --- | --- |
| Active | COc1cc([C@H]2Oc3cc(O)cc(O)c3C[C@H]2O)ccc1OS(=O)(=O)O [3′-O-methyl-4′-O-sulfate-EC, 3′-O-methyl-4′-O-sulfate epicatechin] |

Same assay, conditions: concentration (max) tested 3 mM

| Compound | Activity vs hTRPA1 |
| --- | --- |
| COc1ccc(C2CC(=O)c3c(O)cc(O)cc3O2)cc1O[C@@H]1O[C@H](C(=O)O)[C@@H](O)[C@H](O)[C@H]1O (stereo partly drawn) [Hesperetin-3-O-Glucuronide] | Inactive |
| Hesperetin-4-O-Glucuronide | Inactive |
| Hesperetin-7-3-O-Glucuronide | Inactive |

Same assay, conditions: concentration (max) tested 100 mM

| Activity vs hTRPA1 | Compound |
| --- | --- |
| Inactive | COc1cc([C@H]2Oc3cc(OS(=O)(=O)O)cc(O)c3C[C@H]2O)ccc1O [3′-O-methyl-7-O-sulfate-EC] |
| Inactive | COc1cc([C@H]2Oc3cc(O)cc(O)c3C[C@H]2O)ccc1O [3′-O-methyl-EC] |
| Inactive | O=S(=O)(O)Oc1cc([C@H]2Oc3cc(O)cc(O)c3C[C@H]2O)ccc1O [3′-O-sulfate-EC] |
| Inactive | COc1ccc([C@H]2Oc3cc(O)cc(O)c3C[C@H]2O)cc1O [4′-O-methyl-EC] |
| Inactive | O=S(=O)(O)Oc1ccc([C@H]2Oc3cc(O)cc(O)c3C[C@H]2O)cc1O [4′-O-sulfate-EC] |
